{"source": "patent US12486259B2", "about": "“FXR agonist having pyrazine structure, and preparation method and use” (JIANGSU TASLY DIYI PHARMACEUTICAL CO., LTD., priority 2020, dated 2025)", "key": {"[1]": {"tested_on": "human colon adenocarcinoma cell line Caco-2 monolayer model", "test": "Caco-2 monolayer cell membrane transport experiment", "procedure": "(§1) The bi-directional transport of target compounds from apical side (AP) to basolateral side (BL) and from BL side to AP side is studied by using human colon adenocarcinoma cell line Caco-2 monolayer model. The transport parameters, apparent permeability coefficient (Papp) and efflux ratio are calculated by quantitative analysis with high performance liquid chromatography (HPLC)."}, "[2]": {"test": "Caco-2 monolayer cell membrane transport experiment", "settings": "human; for Papp A→B: Caco-2, Papp A-B; for Papp B→A: Caco-2, Papp B-A", "procedure": "as §1"}, "[3]": {"settings": "Caco-2 cell line (21 days), Table 5"}}}
{"smiles": "C[C@H]1O[C@@H](O[C@H]2[C@@H](O)C[C@H](O[C@H]3[C@@H](O)C[C@H](O[C@H]4CC[C@@]5(C)[C@H](CC[C@@H]6[C@@H]5C[C@@H](O)[C@]5(C)[C@@H](C7=CC(=O)OC7)CC[C@]65O)C4)O[C@@H]3C)O[C@@H]2C)C[C@H](O)[C@@H]1O", "note": "[Digoxin, digoxin, reference compound]", "values": [{"measurement": "Papp A-B, Average", "setting": "[1]; Caco-2, A-B, Average (Table 3)", "result": "<0.04 10−6 cm/s"}, {"measurement": "Efflux rate = Papp B-A/Papp A-B", "setting": "[1]; Caco-2 cell line (21 days)", "result": "> 262.93"}, {"measurement": "efflux ratio", "setting": "[2]; Caco-2", "result": "> 263"}, {"measurement": "Papp A→B", "setting": "[2]; Average, Caco-2, A-B, Average (Table 3)", "result": "< 0.04", "unit": "×10⁻⁶ cm/s"}, {"measurement": "Papp A→B", "setting": "[2]; [3]", "result": "< 0.04", "unit": "×10⁻⁶ cm/s"}, {"measurement": "Papp A→B", "setting": "[2]; Sample-01, Caco-2, A-B, Sample-01", "result": "< 0.05", "unit": "×10⁻⁶ cm/s"}, {"measurement": "Papp A→B", "setting": "[2]; Sample-02, Caco-2, A-B, Sample-02", "result": "< 0.04", "unit": "×10⁻⁶ cm/s"}, {"measurement": "Papp B→A", "setting": "[2]; Average, Caco-2, B-A, Average (Table 3)", "result": 11.6, "unit": "×10⁻⁶ cm/s"}, {"measurement": "Papp B→A", "setting": "[2]; [3]", "result": 11.6, "unit": "×10⁻⁶ cm/s"}, {"measurement": "Papp B→A", "setting": "[2]; Sample-01, Caco-2, B-A, Sample-01", "result": 11.7, "unit": "×10⁻⁶ cm/s"}, {"measurement": "Papp B→A", "setting": "[2]; Sample-02, Caco-2, B-A, Sample-02", "result": 11.5, "unit": "×10⁻⁶ cm/s"}, {"measurement": "recovery", "setting": "[2]; Caco-2, Recovery rate A-B, Average, Caco-2, A-B", "result": "< 87", "unit": "%"}, {"measurement": "recovery", "setting": "[2]; Caco-2, Recovery rate A-B, Sample-01, Caco-2, A-B, Sample-01", "result": "< 85.2", "unit": "%"}, {"measurement": "recovery", "setting": "[2]; Caco-2, Recovery rate A-B, Sample-02, Caco-2, A-B, Sample-02", "result": "< 88.7", "unit": "%"}, {"measurement": "recovery", "setting": "[2]; Caco-2, Recovery rate B-A, Average, Caco-2, B-A", "result": 94.6, "unit": "%"}, {"measurement": "recovery", "setting": "[2]; Caco-2, Recovery rate B-A, Sample-01, Caco-2, B-A, Sample-01", "result": 93.7, "unit": "%"}, {"measurement": "recovery", "setting": "[2]; Caco-2, Recovery rate B-A, Sample-02, Caco-2, B-A, Sample-02", "result": 95.4, "unit": "%"}]}
